Usually IC50 stands for the concentration that inhibits the measured activity by half. A word on the solubility: it is the dissolved amount per volume that the medium holds. Read a high solubility as a readily soluble substance.

The subject of data set [1] is SREBP pathway. The data set is described as follows: SREBP luciferase reporter gene system (SRE-luciferase assay). Type of data set: cell-based, human. The following applies: Huh-7/SRE-luc cells, sterol-deficient medium, 0.01-10 µM. The procedure, abridged: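 Huh-7 cells stably carrying LDLR promoter-luciferase plus GFP were treated 16 h in sterol-deficient medium (5% lipoprotein-deficient serum, 2 µM lovastatin, 10 µM mevalonic acid) at 0.01–10 µM. Luciferase/GFP ratio measured as pathway activity; inhibition versus DMSO fitted to a four-parameter model for IC50.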
(In a reporter assay the amount or activity of a reporter protein is the signal.)

Data set [2] in a line: Solubility in fasted-state simulated intestinal fluid (FaSSIF). The format is physicochemical. The following applies: FaSSIF pH 6.5, 300 µM sample solution, room temperature. As for the experimental part: Compound powder was dissolved in DMSO to prepare a 10.0 mM stock solution for later use. 0.021 g NaOH, 0.198 g NaH2PO4, and 0.309 g NaCl were weighed and added to 50.0 mL of ultrapure water. After thorough mixing, the pH was adjusted to 6.5 using HCl or NaOH. Then, 0.112 g of FaSSIF powder was added. After complete dissolution, the solution was allowed to stand at room temperature for 2 hours for later use. A certain volume of the compound stock solution was added to a certain volume of FaSSIF to prepare a 300 µM sample solution, which was mixed at room temperature under 1000 rpm for 1 hour. After 1 hour, the sample was centrifuged, and a certain volume of supernatant was taken. The termination solution was added to precipitate the sample, which was then thoroughly mixed and centrifuged for 20 minutes. The supernatant was then taken again, diluted with dilution solution, and then analyzed by liquid chromatography-tandem mass spectrometry (LC-MS/MS). The concentration of the test compound in the samples was quantitatively determined using LC-MS/MS. Table 3: FaSSIF solubility results of compounds from some examples

Data set [3] has as its system Fatty Acid Synthase (FASN) gene. The experiment in a line: Inhibition of FASN gene expression (qPCR) in Huh-7 cells. Type of data set: cell-based, human. The following applies: Huh-7 cells, starvation medium, 16 hours, qPCR, class symbols, read-out: FASN IC50. The procedure, abridged:
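Huh-7 cells switched to starvation DMEM (5% LPDS, 2 µM lovastatin, 10 µM mevalonate) and treated 16 h with compound, top 3000 nM, 3-fold dilutions, 5 concentrations. FASN mRNA by RT-qPCR; inhibition relative to DMSO, IC50 from four-parameter fit.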
Background: Real-time PCR tracks product formation cycle by cycle.

The mark [4] stands for this setting: FaSSIF, pH 6.5, fassif, kinetic from dmso stock.

Values after ≈ are worked out from the molar mass of the structure shown. Like-named read-outs stand apart in the source and are kept apart here.

For `COc1nc(F)ccc1[C@@H](O)CC[C@@H](C)[C@H]1CC[C@H]2[C@H]3[C@H](CC[C@]12C)[C@@]1(C)CC[C@H](O)[C@H](O)[C@@H]1CC3(F)F` [Compound 337, (1R,3aS,3bS,5aR,6R,7S,9aR,9bS,11aR)-4,4-difluoro-1-[(2R,5S)-5-(6-fluoro-2-methoxypyridin-3-yl)-5-hydroxypentan-2-yl]-9a,11a-dimethylhexadecahydro-1H-cyclopenta[1,2-a]phenanthrene-6,7-diol], the IC50 was 0.155 µM in data set [1] (Homo sapiens, Huh-7, 16 h) and below 200 nM in data set [3] (Homo sapiens, Huh-7, 16 h). Also, the solubility at 1 h in data set [2] (setting [4]) was 246 µM (≈ 133 µg/mL).
`COc1nc(F)ccc1C(O)CCC[C@@H](C)[C@H]1CC[C@H]2[C@H]3[C@H](CC[C@]12C)[C@@]1(C)CC[C@H](O)[C@H](O)[C@@H]1CC3(F)F` (single isomer, unassigned) [Compound 189, (1R,3aS,3bS,5aR,6R,7S,9aR,9bS,11aR)-4,4-difluoro-1-[(2R,6R)-6-(6-fluoro-2-methoxypyridin-3-yl)-6-hydroxyhexan-2-yl]-9a,11a-dimethylhexadecahydro-1H-cyclopenta[1,2-a]phenanthrene-6,7-diol or (1R,3aS,3bS,5aR,6R,7S,9aR,9bS,11aR)-4,4-difluoro-1-[(2R,6S)-6-(6-fluoro-2-methoxypyridin-3-yl)-6-hydroxyhexan-2-yl]-9a,11a-dimethylhexadecahydro-1H-cyclopenta[1,2-a]phenanthrene-6,7-diol]: the figures for the IC50 in data set [1] (16 hours) and in data set [3] were 0.0231 µM and below 200 nM, respectively. The molecule also had a solubility at 1 h in data set [2] (60 min) of 157.08 µM (≈ 87 µg/mL).
For `C[C@H](CCCC(O)c1cncc2c1OC(F)(F)O2)[C@H]1CC[C@H]2[C@H]3[C@H](CC[C@]12C)[C@@]1(C)CC[C@H](O)[C@H](O)[C@@H]1CC3(F)F` (stereo partly drawn) [Compound 297, (1R,3aS,3bS,5aR,6R,7 S,9aR,9bS,11aR)-1-[(2R)-6-(2,2-Difluoro[1,3]dioxolo[4,5-c]pyridin-7-yl)-6-hydroxyhexan-2-yl]-4,4-difluoro-9a,11a-dimethylhexadecahydro-1H-cyclopenta[1,2-a]phenanthrene-6,7-diol], in data set [1] (Homo sapiens, Huh-7, 16 h), the IC50 was found to be 0.197 µM. In data set [2] (setting [4]), this molecule showed a solubility at 1 h of 19.5 µM (≈ 11.4 µg/mL).
Consider `C[C@H](CCCC(O)c1cccc2c1OC(F)(F)O2)[C@H]1CC[C@H]2[C@H]3[C@H](CC[C@]12C)[C@@]1(C)CC[C@H](O)[C@H](O)[C@@H]1CC3(F)F` (single isomer, unassigned) [Compound 195, (1R,3aS,3bS,5aR,6R,7S,9aR,9bS,11aR)-1-[(2R,6R)-6-(2,2-difluorobenzo[d][1,3]dioxol-4-yl)-6-hydroxyhexan-2-yl]-4,4-difluoro-9a,11a-dimethylhexadecahydro-1H-cyclopenta[1,2-a]phenanthrene-6,7-diol or (1R,3aS,3bS,5aR,6R,7S,9aR,9bS,11aR)-1-[(2R,6S)-6-(2,2-difluorobenzo[d][1,3]dioxol-4-yl)-6-hydroxyhexan-2-yl]-4,4-difluoro-9a,11a-dimethylhexadecahydro-1H-cyclopenta[1,2-a]phenanthrene-6,7-diol], for which the IC50 is 0.067 µM in data set [1] (16 hours) and below 200 nM in data set [3]. In data set [2] (setting [4]), this molecule yielded a solubility at 1 h of 244 µM (≈ 143 µg/mL).
As to `C[C@H](CCCC(O)c1nccn1C)[C@H]1CC[C@H]2[C@H]3[C@H](CC[C@]12C)[C@@]1(C)CC[C@H](O)[C@H](O)[C@@H]1CC3(F)F` (stereo partly drawn) [Compound 223, (1R,3aS,3bS,5aR,6R,7 S,9aR,9bS,11aR)-4,4-Difluoro-1-[(2R)-6-hydroxy-6-(3-methylimidazol-2-yl)hexan-2-yl]-9a,11a-dimethylhexadecahydro-1H-cyclopenta[1,2-a]phenanthrene-6,7-diol], the IC50 in data set [1] (Homo sapiens, Huh-7, 16 h) was found to be 0.093 µM. This molecule also came in with a solubility at 1 h in data set [2] (setting [4]) of 305 µM (≈ 155 µg/mL).
Regarding `COc1nc(F)cnc1C(O)CCC[C@@H](C)[C@H]1CC[C@H]2[C@H]3[C@H](CC[C@]12C)[C@@]1(C)CC[C@H](O)[C@H](O)[C@@H]1CC3(F)F` (stereo partly drawn) [Compound 175, (1R,3aS,3bS,5aR,6R,7S,9aR,9bS,11aR)-4,4-difluoro-1-[(2R)-6-(5-fluoro-3-methoxypyrazin-2-yl)-6-hydroxyhexan-2-yl]-9a,11a-dimethylhexadecahydro-1H-cyclopenta[1,2-a]phenanthrene-6,7-diol], the IC50 in data set [1] (Homo sapiens, Huh-7, 16 h) was determined as 0.285 µM. In data set [2] (setting [4]), this molecule yielded a solubility at 1 h of 280 µM (≈ 155 µg/mL).
With `C[C@H](CCCC(O)c1ccc(F)nc1OC1CC1)[C@H]1CC[C@H]2[C@H]3[C@H](CC[C@]12C)[C@@]1(C)CC[C@H](O)[C@H](O)[C@@H]1CC3(F)F` (stereo partly drawn) [Compound 328, (1R,3aS,3bS,5aR,6R,7S,9aR,9bS,11aR)-1-[(2R)-6-[2-(cyclopropyloxy)-6-fluoropyridin-3-yl]-6-hydroxyhexan-2-yl]-4,4-difluoro-9a,11a-dimethylhexadecahydro-1H-cyclopenta[1,2-a]phenanthrene-6,7-diol], the IC50 in data set [1] (Homo sapiens, Huh-7, 16 h) was found to be 0.043 µM. The solubility at 1 h in data set [2] (setting [4]) is 263 µM (≈ 152 µg/mL).
Turning to `C[C@H](CCCC(O)c1cccc2c1cnn2C)[C@H]1CC[C@H]2[C@H]3[C@H](CC[C@]12C)[C@@]1(C)CC[C@H](O)[C@H](O)[C@@H]1CC3(F)F` (single isomer, unassigned) [Compound 250, (1R,3aS,3bS,5aR,6R,7S,9aR,9bS,11aR)-4,4-difluoro-1-[(2R,6R)-6-hydroxy-6-(1-methylindazol-4-yl)hexan-2-yl]-9a,11a-dimethylhexadecahydro-1H-cyclopenta[1,2-a]phenanthrene-6,7-diol or (1R,3aS,3bS,5aR,6R,7S,9aR,9bS,11aR)-4,4-difluoro-1-[(2R,6S)-6-hydroxy-6-(1-methylindazol-4-yl)hexan-2-yl]-9a,11a-dimethylhexadecahydro-1H-cyclopenta[1,2-a]phenanthrene-6,7-diol], in data set [1] (16 hours), the IC50 amounted to 0.066 µM. Besides, in data set [2] (60 min), the solubility at 1 h is 32.95 µM (≈ 18.4 µg/mL).
Consider `C[C@H](CCCC(O)c1cccc2ncn(C)c12)[C@H]1CC[C@H]2[C@H]3[C@H](CC[C@]12C)[C@@]1(C)CC[C@H](O)[C@H](O)[C@@H]1CC3(F)F` (single isomer, unassigned) [Compound 298, (1R,3aS,3bS,5aR,6R,7S,9aR,9bS,11aR)-4,4-difluoro-1-[(2R,6S)-6-hydroxy-6-(3-methylbenzo[d]imidazol-4-yl)hexan-2-yl]-9a,11a-dimethylhexadecahydro-1H-cyclopenta[1,2-a]phenanthrene-6,7-diol or (1R,3aS,3bS,5aR,6R,7S,9aR,9bS,11aR)-4,4-difluoro-1-[(2R,6R)-6-hydroxy-6-(3-methylbenzo[d]imidazol-4-yl)hexan-2-yl]-9a,11a-dimethylhexadecahydro-1H-cyclopenta[1,2-a]phenanthrene-6,7-diol], for which the IC50 in data set [1] (16 hours) stood at 0.093 µM. Besides, the solubility at 1 h in data set [2] (setting [4]) was 18.2 µM (≈ 10.2 µg/mL).
For the molecule `C[C@H](CCCC(O)c1cccc2c1cnn2C)[C@H]1CC[C@H]2[C@H]3[C@H](CC[C@]12C)[C@@]1(C)CC[C@H](O)[C@H](O)[C@@H]1CC3(F)F` (single isomer, unassigned) [Compound 249, (1R,3aS,3bS,5aR,6R,7S,9aR,9bS,11aR)-4,4-difluoro-1-[(2R,6S)-6-hydroxy-6-(1-methylindazol-4-yl)hexan-2-yl]-9a,11a-dimethylhexadecahydro-1H-cyclopenta[1,2-a]phenanthrene-6,7-diol or (1R,3aS,3bS,5aR,6R,7S,9aR,9bS,11aR)-4,4-difluoro-1-[(2R,6R)-6-hydroxy-6-(1-methylindazol-4-yl)hexan-2-yl]-9a,11a-dimethylhexadecahydro-1H-cyclopenta[1,2-a]phenanthrene-6,7-diol], in data set [1] (Homo sapiens, Huh-7, 16 h), the IC50 came to 0.058 µM. In data set [2] (setting [4]), this molecule displayed a solubility at 1 h of 38.6 µM (≈ 21.6 µg/mL).
For the molecule `C[C@H](CCCC(O)c1nccc2c1OC(F)(F)O2)[C@H]1CC[C@H]2[C@H]3[C@H](CC[C@]12C)[C@@]1(C)CC[C@H](O)[C@H](O)[C@@H]1CC3(F)F` (stereo partly drawn) [Compound 296, (1R,3aS,3bS,5aR,6R,7 S,9aR,9bS,11aR)-1-[(2R)-6-(2,2-Difluoro[1,3]dioxolo[4,5-c]pyridin-4-yl)-6-hydroxyhexan-2-yl]-4,4-difluoro-9a,11a-dimethylhexadecahydro-1H-cyclopenta[1,2-a]phenanthrene-6,7-diol], the IC50 in data set [1] (Homo sapiens, Huh-7, 16 h) is 0.226 µM. Also, the solubility at 1 h in data set [2] (setting [4]) was 69.3 µM (≈ 40.6 µg/mL).
`C[C@H](CCCC(O)c1c(F)cc(F)nc1F)[C@H]1CC[C@H]2[C@H]3[C@H](CC[C@]12C)[C@@]1(C)CC[C@H](O)[C@H](O)[C@@H]1CC3(F)F` (stereo partly drawn) [Compound 165, (1R,3aS,3bS,5aR,6R,7S,9aR,9bS,11aR)-4,4-difluoro-1-[(2R)-6-hydroxy-6-(2,4,6-trifluoropyridin-3-yl)hexan-2-yl]-9a,11a-dimethylhexadecahydro-1H-cyclopenta[1,2-a]phenanthrene-6,7-diol]: in data set [1] (Homo sapiens, Huh-7, 16 h), the IC50 stood at 0.099 µM. For the same molecule, in data set [2] (setting [4]), the concentration in solution (solubility at 1 h) came to 87.4 µM (≈ 48.9 µg/mL).
`COc1cc(F)c(C(O)CCC[C@@H](C)[C@H]2CC[C@H]3[C@H]4[C@H](CC[C@]23C)[C@@]2(C)CC[C@H](O)[C@H](O)[C@@H]2CC4(F)F)c(F)c1` (some centres unmarked) [Compound 197]: the IC50 in data set [1] (Homo sapiens, Huh-7, 16 h) is 0.073 µM. This molecule showed a solubility at 1 h in data set [2] (setting [4]) of 328 µM (≈ 187 µg/mL).

The record behind these values is EP4752152A1, “STEROID COMPOUND, AND PREPARATION METHOD THEREFOR AND USE THEREOF” (Cholesgen (Shanghai) Co.Ltd., priority 2023, dated 2025).
